Measured values: BindingDB's records for patent US20230348456 (Repare Therapeutics, 2023)

Molecular target: T1, Membrane-associated tyrosine- and threonine-specific cdc2-inhibitory kinase (Homo sapiens, UniProt Q99640)
T1 sequence (Q99640 whole entry): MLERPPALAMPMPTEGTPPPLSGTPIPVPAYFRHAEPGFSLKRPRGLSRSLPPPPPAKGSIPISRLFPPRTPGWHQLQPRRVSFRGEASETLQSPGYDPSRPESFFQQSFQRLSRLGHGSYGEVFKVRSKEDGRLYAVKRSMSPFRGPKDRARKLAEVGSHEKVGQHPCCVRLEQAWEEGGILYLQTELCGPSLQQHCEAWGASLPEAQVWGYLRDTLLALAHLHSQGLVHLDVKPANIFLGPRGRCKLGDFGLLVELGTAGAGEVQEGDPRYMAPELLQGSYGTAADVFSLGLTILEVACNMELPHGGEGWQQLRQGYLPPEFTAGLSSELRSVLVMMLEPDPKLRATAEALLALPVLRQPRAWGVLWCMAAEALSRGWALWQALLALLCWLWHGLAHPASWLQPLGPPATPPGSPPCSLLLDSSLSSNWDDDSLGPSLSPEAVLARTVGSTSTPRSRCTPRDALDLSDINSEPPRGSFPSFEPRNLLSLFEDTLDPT
Test: Enzymatic Assay
Procedure: Detection of Myt1 kinase activity utilized a recombinant human Myt1 kinase assay measuring the hydrolysis of ATP using a commercially available ADP-Glo Assay (ADP-Glo Kinase Assay from Promega, 10 000 assays, #V9102). Briefly, 5 μL recombinant human Myt1 (full length PKMYT1 recombinant human protein expressed in insect cells from Thermo Fisher #A33387; 80% purity) was prepared in reaction buffer (70 mM HEPES, 3 mM MgCl2, 3 mM MnCl2, 50 μg/ml PEG 20000, 3 μM Na-orthovanadate, 1.2 mM DTT) and added to 384 well white polystyrene, flat bottom well, non-treated, microplate (Corning #3572). After this, 5 μL of compounds (diluted in reaction buffer to 0.5% DMSO) was added to the microplate and the plate was spun briefly and incubated at 22 C. for 15 minutes. Ultra-Pure Adenosine Triphosphate (ATP) solution (ADP-Glo kit from Promega) was diluted in reaction buffer and 5 μL was added to the microplate, spun down briefly and incubated for 60 minutes at 30 C. The final Myt1 enzyme concentration was 18 nM and the final ATP concentration was 10 μM. After the 60-minute incubation, 15 μL of ADP-Glo reagent was added and the plate was spun briefly and sealed and incubated in the dark for 40 minutes at 22 C. Following this, 30 μL of kinase detection reagent was added per well and the plate was spun briefly, sealed and incubated for 45-60 minutes at 22 C. in the dark. Luminescence was read using the Envision (250 ms integration). T

Row | IC50 | SMILES
1 | 8 nM | Nc1c(-c2cccc3[nH]ncc23)cc(-c2nccs2)c2nc(-c3ccc(CN4CCOCC4)cc3)[nH]c(=O)c12 [US20230348456, Compound 39]
2 | 4 nM | Nc1c(-c2cccc3[nH]ncc23)cc(-n2cccn2)c2nc(-c3ccncc3)[nH]c(=O)c12 [US20230348456, Compound 77]
3 | 4 nM | Nc1c(-c2cccc3[nH]ncc23)cc(-c2cccc(OC3CCOCC3)c2)c2nc(-c3ccncc3)[nH]c(=O)c12 [US20230348456, Compound 65]
4 | 4 nM | Nc1ccc(-c2nc3c(Br)cc(-c4cccc5[nH]ncc45)c(N)c3c(=O)[nH]2)cn1 [US20230348456, Compound 7]
5 | 10 nM | Nc1c(-c2cccc3[nH]ncc23)cc(Br)c2nc(-c3ccc(N4CCC5(CC4)COC5)nc3)[nH]c(=O)c12 [US20230348456, Compound 34]
